Measured values: US20210094922A1, “Dyes for Analysis of Soluble Protein Aggregates or Misfolded Protein Oligomers” (The Penn State Research Foundation, priority 2018, published 2021)
Values joined by “and” are separate entries in the source; they are usually repeats but may differ in a detail not shown here. Equal entries are not always repeated. Values belong to the compound of their own block, whether it stands above or below them.

Legend:
[1] = Photostability of 3, absorbance under laser irradiation; assay type: physicochemical; conditions: 5 mW laser beam of 543 nm; glycerol and protein aggregates
Description: The inventors also determined photostability of 3 by measuring its absorbance spectra in glycerol and protein aggregates. […] These photochemical properties make 3 suited for fluorescence microscopy.

[2] = system: HEK293T cells; test: Stress-induced proteome aggregation in HEK293T cells with MG132 (AggGlow); assay type: cell-based, human; conditions: 5 μM MG132, 2.5 μM 3
Description: (§1) Untreated cells remain dark as shown in right panel.
(§2) 3 is used to monitor stress-induced proteome aggregation in HEK293T (human embryonic kidney) cells with a proteasome inhibitor MG132. […] The diffusive fluorescence structure indicates misfolded oligomers and the granular fluorescence structure indicates insoluble aggregates. Similar to this application, 3 was used to monitor stress-induced proteome aggregation in HeLa cells with a heat-shock protein 90 (Hsp90) inhibitor 17-AAG.

[3] = molecular target: T1, α-synuclein (Homo sapiens, UniProt P37840); test: α-synuclein aggregation assay, fluorogenic detection; assay type: biochemical
T1 construct: made in house; host or cells: E. coli (pET29b vector)
Experimental: Aggregation of α-synuclein was carried out using method described in the Supporting Information. Subsequently, half of reaction mixture was loaded on a 96-well plate to measure fluorescence intensity of 3 (a) or ThT (b) for the reaction mixture (T). The other half was centrifuged at 21,000 g for 30 minutes at 4° C. The supernatant fraction (S) and pellet fraction (P, after resuspension with a volume that was equal to that of the S fraction) were loaded on a 96-well plate to measure fluorescence intensity. 10 μM 3 or ThT was also incubated in buffer as a control. Parameters for fluorescence measurement: 3 (Ex=530 nm/Em=600 nm) and ThT (Ex=440 nm/Em=480 nm). Error bars: standard error (n=3).
(§3) HEK293T cultures were seeded at 25% confluency 24 h prior to transfection in 12-well plate for time dependent fluorescence plate reader analysis or 35 mm glass bottom culture dishes (Poly-d-lysine coated, MatTek Corporation). Cells were grown in DMEM medium supplemented with 10% FBS and penicillin-streptomycin antibiotics until they reached 50-60% confluency. Transfection was performed using X-tremeGene™ 9 DNA transfection reagent (Roche). After 24 h of protein expression and co-translational labeling, medium was replaced with fresh DMEM to diffuse out unbound ligands. After 30 min, media was replaced by fresh DMEM medium containing DMSO vehicle or NaAsO2 (50 μM). Cells were incubated for 18 h, 37° C. in a CO2 incubator. Nuclear stain Hoechst 33342 ([…]) was added to the medium 30 min prior to confocal imaging. Aggregation Assays. α-synuclein: Aggregation solution contained 70 or 140 μM α-synuclein in 20 mM HEPES (pH 7.5) and 100 mM NaCl. 10 μM of 3 or ThT was added to the solution at the beginning of reaction. Previous studies have shown that the kinetics of α-synuclein aggregation is unaffected by the addition of ThT. A volume of 150 μL of the mixture was pipetted into a well of clear-bottom 96-well plate, which was subsequently sealed with Mylar plate sealers. The plate was loaded on a Heidolph vibrating platform shaker and shake at 1,350 rpm at 37° C. At indicated time points, fluorescence reading was obtained using a Tecan M1000Pro fluorescence plate reader. Fluorescence intensity was recorded at Ex=530 nm/Em=600 nm for 3 and Ex=450 nm/Em=480 nm for ThT. Each sample was run in triplicate or quadruplicate. SOD1(V31A): Aggregation was carried out with DPBS buffer containing indicated concentrations of EDTA that is used to chelate the structural metal of SOD1. Aggregation solution contained 42 μM SOD1(V31A) or SOD1(V31A)-Halo and […] of 3 was added to the solution at the beginning of reaction. Reaction was carried out quiescently at indicated temperatures. Fluorescence of 3 was measured at Ex=530 nm/Em=600 nm.

[4] = Fluorescence of crystals of 3; assay type: physicochemical; conditions: crystal
Description: (a) The crystal of 3 is fluorescent. The crystals were looped out and transferred to a 35 mm glass bottom dish. Images were taken using an inverted Biorad ZOE fluorescent cell imager. […] Reason of the dark image in the bright field is because light of an inverted microscope could not pass through the thick crystal. (b) Crystal structure and packing diagram of 3, with thermal ellipsoids drawn at 50% probability level.
The fluorescence may arise from the tight crystal packing that inhibits TICT of 3 (FIG. 10b).

[5] = system: HeLa cells; test: Stress-induced proteome aggregation in HeLa cells with 17-AAG (AggGlow); assay type: cell-based; conditions: 1 μM 17-AAG, 2.5 μM 3
Description: as §1, §2

[6] = molecular target: T2, SOD1(V31A) (Homo sapiens, UniProt P00441, V32A); test: Heat-induced SOD1(V31A) aggregation assay, fluorogenic detection; assay type: biochemical
T2 construct: linker (TEV site)-Halo-His6 (C, cleaved yes); made in house; host or cells: E. coli BL21 DE3* (pET29b; pBAD σ32-I54N co-expressed)
Experimental: (a) SOD1(V31A) aggregation (42 μM) was induced at 59° C. for 30 min in buffer (50 mM Tris-HCl, pH 7.5, 100 mM NaCl, 83 mM EDTA), in the presence of 3 (21 μM). Reaction mixture was illuminated by UV trans-illuminator before and after centrifugation at 21,000 g for 10 min at 4° C. (b) Fluorescence intensity of SOD1(V31A) aggregates (42 μM) in the presence of varying concentrations of 3. 100 μM of 3 in buffer was used as a control. Parameters for fluorescence measurement: 3 (Ex=530 nm/Em=600 nm). Error bars: standard error (n=3).
as §3

[7] = Photophysical parameters of fluorophores in glycerol; assay type: physicochemical
Experimental: FP analogues (20 μM) were prepared in glycerol:H2O mixture with increasing glycerol concentrations. In addition, fluorescence intensity in 1,4-dioxane was measured to evaluate their response to polarity. Fluorescence measurement was carried out using a Tecan infinite M1000Pro fluorescence microplate reader at excitation and emission wavelengths as indicated. All readings were normalized against the fluorescence intensity in 100% glycerol as 1. Error bars: standard error (n=3).
FP analogues (20 μM) were prepared in glycerol. Spectra were collected with emission wavelength of 420 nm for 1, 525 nm for 2, 620 nm for 3, 3a and 3b. All measurements were carried out using a Tecan infinite M1000Pro fluorescence microplate reader.
FP analogues (20 μM) were prepared in glycerol. Spectra were collected with excitation wavelength of 370 nm for 1, 455 nm for 2, 530 nm for 3 and 3b, 485 nm for 3a. All measurements were carried out using a Tecan infinite M1000Pro fluorescence microplate reader.
FP analogues (10 μM) were prepared in glycerol. Spectra were collected with 10 mm quartz cuvette. All measurements were carried out using Agilent 300 UV-Vis spectrophotometer.
However, the quantum yield (QY, Φ=0.001 for 1 and Φ=0.027 for 2 in glycerol, Table 2) was much lower than that of a GFP (Φ=0.79).

[8] = molecular target: T3, SOD1-A4V-Halo (Homo sapiens, UniProt P00441, A5V); test: In vitro heat-induced aggregation of SOD1-A4V-Halo conjugates; assay type: biochemical
Description: (§4) (B-C) Excitation and emission spectra of 4 (with misfolded oligomers of SOD1-A4V-Halo) and 5 (with insoluble aggregates of SOD1-A4V-Halo).
The inventors installed Halo-tag reactive warhead to 2, resulting in 5.
Target sequence in this assay (P00441 with tags, fused parts or gaps A5V): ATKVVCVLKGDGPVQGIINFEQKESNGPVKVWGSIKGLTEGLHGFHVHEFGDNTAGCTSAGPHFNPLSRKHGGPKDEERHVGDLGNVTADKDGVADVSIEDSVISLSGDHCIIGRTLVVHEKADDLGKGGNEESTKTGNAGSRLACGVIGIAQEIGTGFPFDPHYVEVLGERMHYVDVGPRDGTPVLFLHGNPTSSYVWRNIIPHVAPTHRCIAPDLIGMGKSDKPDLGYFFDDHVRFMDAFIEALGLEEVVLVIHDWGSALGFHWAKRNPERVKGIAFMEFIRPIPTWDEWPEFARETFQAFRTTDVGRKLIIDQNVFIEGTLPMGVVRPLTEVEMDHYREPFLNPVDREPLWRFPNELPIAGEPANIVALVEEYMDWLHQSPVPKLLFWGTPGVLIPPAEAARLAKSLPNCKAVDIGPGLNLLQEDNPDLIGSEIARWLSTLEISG

[9] = molecular target: T3, SOD1-A4V-Halo; test: Two-color imaging of SOD1-A4V-Halo in HEK293T cells under MG132; assay type: cell-based; set-up: expressed in transfected cells; host or cells: HEK293T; conditions: 4 and 5 both at 0.5 μM, 5 μM MG132 for 8 h
Description: as §4
(§5) Combination of 4 and 5 enables a two-color imaging strategy to differentiate insoluble aggregates from soluble oligomers. The inventors carried out live cell imaging experiments, wherein 4 or 5 was used to visualize aggregation of POI-Halo fusion proteins in HEK293T cells. […] To this end, the inventors labeled HEK293T cells expressing SOD1-A4V-Halo simultaneously with 4 and 5 (both at 0.5 μM) for 24 h and treated cells with 5 μM MG132 for 8 h. […] The inventors further carried out experiments using Htt-PolyQ with 110 glutamine repeats (Htt-110Q-Halo).
Target sequence in this assay (P00441 with tags, fused parts or gaps A5V limits assumed): as the sequence (P00441 with tags, fused parts or gaps A5V) above

[10] = molecular target: T4, Htt-110Q-Halo (Homo sapiens, UniProt P42858); test: Two-color imaging of Htt-110Q-Halo in HEK293T cells; assay type: cell-based
T4 construct: using the Huntingtin exon 1 protein (Htt) with expansion of a polyglutamine tract within its N-terminal domain; expressed in transfected cells; host or cells: HEK293T
Description: as §4, §5

[11] = system: Htt-110Q-Halo; test: as above; assay type: cell-based, human; conditions: control
Description: as §4, §5

[12] = 4 with misfolded oligomers, 5 with insoluble aggregates of SOD1-A4V-Halo

T2 sequence (P00441 whole entry V32A): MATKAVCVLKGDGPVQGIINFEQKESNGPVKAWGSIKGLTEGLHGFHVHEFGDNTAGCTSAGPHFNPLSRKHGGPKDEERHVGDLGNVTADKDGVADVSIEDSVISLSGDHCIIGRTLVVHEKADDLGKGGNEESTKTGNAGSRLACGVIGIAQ
T4 sequence (P42858 with tags, fused parts or gaps): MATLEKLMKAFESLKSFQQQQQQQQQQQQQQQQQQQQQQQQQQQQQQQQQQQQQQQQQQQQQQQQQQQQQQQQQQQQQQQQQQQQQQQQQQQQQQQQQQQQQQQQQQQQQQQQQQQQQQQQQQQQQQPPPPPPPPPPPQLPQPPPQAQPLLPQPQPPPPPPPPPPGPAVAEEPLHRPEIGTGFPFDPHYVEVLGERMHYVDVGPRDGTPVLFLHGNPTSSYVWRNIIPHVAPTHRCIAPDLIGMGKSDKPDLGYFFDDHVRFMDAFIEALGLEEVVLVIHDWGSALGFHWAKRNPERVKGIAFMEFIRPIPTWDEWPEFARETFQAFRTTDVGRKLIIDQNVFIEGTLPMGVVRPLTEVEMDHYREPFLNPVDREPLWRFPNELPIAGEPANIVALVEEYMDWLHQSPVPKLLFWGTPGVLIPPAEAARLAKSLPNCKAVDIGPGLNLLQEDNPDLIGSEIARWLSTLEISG

drop of absorbance at 530 nm on irradiation [1]: 10% | fluorescence intensity with mature α-syn fibers ([3]; 70 μM α-syn): 0.52 | fluorescence intensity with mature α-syn fibers ([3]; 140 μM α-syn): 1.0 | stoichiometry of fluorescence intensity with α-syn concentration ([3]; 70 vs 140 μM α-syn): stoichiometric | time at which second phase of fluorescence increase was observed ([3]; fiber growth): 20 h | time at which second phase leveled off ([3]; fiber maturation): 36 h | time at which fluorescence reached a plateau ([3]; first phase): 8 h | time at which fluorescence started to increase ([3]; first phase, soluble oligomers): 4 h | fluorescence of crystals [4]: exhibited fluorescence | kinetics of fluorescence increase versus protein misfolding (tryptophan fluorescence) [6]: identical to that of protein misfolding | kinetics of fluorescence increase versus turbidity ([6]; 54.5° C.): faster than that of turbidity | quantum yield after aggregation of SOD1-V31A ([6]; incubated at 59° C.): 0.22 | quantum yield before aggregation of SOD1-V31A ([6]; start value): 0.02 | B (brightness) ([7]; calculated using B = Φϵ): 8,786 M^−1cm^−1 | Φ (quantum yield) ([7]; in glycerol): 0.22 and 0.221 | λem ([7]; in glycerol): 629 nm | λex ([7]; in glycerol): 530 nm | λabs ([7]; maximum absorbance measured in glycerol): 530 nm | ϵ (extinction coefficient) ([7]; measured in glycerol): 39,049 M^−1cm^−1
Structure (SMILES): CN(C)c1ccc(/C=C2N=C(/C=C/c3ccc(N(C)C)cc3)N(CC(=O)OC(C)(C)C)C\2=O)cc1 [Compound 3, tert-butyl 2-((Z)-4-(4-(dimethylamino)benzylidene)-2-((E)-4-(dimethylamino)styryl)-5-oxo-4,5-dihydro-1H-imidazol-1-yl)acetate]
fluorescence in stressed cells [2]: obvious fluorescence pattern was developed in the cytosol | detection of soluble oligomers of α-syn [3]: detects soluble oligomers via fluorescence increase | fluorescence in stressed cells [5]: obvious fluorescence pattern was developed in the cytosol | fraction in which fluorescence signal is found ([6]; after centrifugation): primarily found in the fraction of insoluble protein aggregates

molar extinction coefficient [8]: 23,716 M^−1·cm^−1 | Em [8, 12]: 520 nm | Ex [8, 12]: 450 nm | fluorescence of perinuclear SOD1 A4V-Halo granules [9]: dark fluorescence to a background level | fluorescence of Htt-110Q-Halo inclusions [10]: exhibit fluorescence from both 4 and 5
Structure (SMILES): CC1=N/C(=C\c2ccc(N(C)C)cc2)C(=O)N1CC(=O)N[C@H]1CC[C@H](C(=O)NCCOCCOCCCCCCCl)CC1 [Compound 5]
fluorescence in cells co-expressing Halo-tag and Htt-110Q-mCherry [11]: fluorescence was not observed
